{
  "source": "patent US20100075316A1",
  "about": "“METHOD FOR I[…] VITAMIN D METABOLISM” (priority 2006, published 2010)",
  "key": {"CYP24": {"system": "CYP24", "experiment": "CYP24 enzyme activity in untreated and calcitriol-treated human cancer cell lines", "assay_type": "cell-based", "settings": "for CYP24A1 enzyme activity profiles: baseline and calcitriol-induced", "source_text": "FIG. 2 is a graphical depiction of CYP24 enzymatic activity measured in untreated and calcitriol treated human cancer cell lines.\nThis Example provides an analysis of CYP24 enzyme activity in untreated and calcitriol-treated human (prostate, breast, lung and colon) cancer cell lines to characterize their capacity to catabolize calcitriol."}, "PC3": {"system": "PC3", "settings": "PC3, androgen independent human prostate cancer cells; cited from earlier work"}, "LNCaP": {"system": "LNCaP", "settings": "androgen dependent human prostate cancer cell line; cited from earlier work"}, "DU145": {"system": "DU145", "settings": "DU145, androgen independent human prostate cancer cells; cited from earlier work"}, "CYP24 mRNA": {"system": "CYP24 mRNA", "experiment": "Semi-quantitative RT-PCR of CYP24 exon 11-12 transcripts before and after calcitriol treatment", "assay_type": "cell-based, human", "settings": "after calcitriol treatment", "source_text": "FIGS. 3A-3D provide graphical representations of CYP24 mRNA splicing patterns and cDNA amplification profiles. FIG. 3A provides a graphical map of the CYP24 gene from exon 9 through exon 11, an example of primer locations for obtaining cDNA using RT-PCR, and resulting products in the case of correct (280 bp) and aberrant (880 bp) splicing. FIG. 3B provides a graphical map of the CYP24 gene from exon 11 through exon 12 and RT-PCR cDNA product sizes for correctly spliced CYP24 mRNA from a CYP24 gene lacking a predictive SNP (150 bp), as well as the inclusion of intron 12 sequences in aberrantly spliced CYP24 mRNA when the predictive SNP is present (302 by transcript). FIG. 3C is a photographic representation of cDNA amplification products of unspliced or spliced CYP24 mRNA across exons 9-11 of the CYP24 mRNA. FIG. 3D is a photographic representation of cDNA amplification products across exons 11-12 of correctly spliced (150 bp) or aberrantly spliced (302 bp) CYP24 mRNA from various cancer cell lines.\nCalcitriol treatment (T) modulated the relative expression of the two transcripts differently in the three prostate cancer cell lines. CYP24 enzyme activity is associated with the expression of the lower molecular weight transcript in the three prostate cancer cell lines as shown in Table 3 (D3=calcitriol), which describes the relationship between CYP24 protein activity phenotypes and exon 11-12 transcript size before (“C” in FIG. 3) and after (“T” in FIG. 3) calcitriol treatment in prostate cancer cell lines."}, "[1]": {"experiment": "Serum calcitriol clearance in cancer patients by CYP24 genotype", "assay_type": "in vivo, human", "settings": "TT/TT genotype (positions 15752 and 15774 of SEQ ID NO:1) vs TC/TC; 30 patients, oral high doses of calcitriol; p-value=0.0377", "description": "Elimination half life was calculated using the equation: T1/2=0.693/β, where β is the slope of the regression line of the terminal log serum calcitriol concentration versus time.\nThis Example provides an analysis of clinical ramifications of certain CYP24 polymorphisms. To obtain the data presented in this Example, we analyzed CYP24 polymorphisms in the intron between exon 9 and 10 in DNA samples obtained from 30 cancer patients treated with high doses of orally administered calcitriol. […] (Smith DC, et al., Clin Cancer Res. 1999; 5: 1339-1345)."}, "advanced prostate cancer": {"system": "advanced prostate cancer", "settings": "randomized trial, men with advanced prostate cancer; cited from earlier work"}},
  "data": [
    {"compound": "C=C1/C(=C\\C=C2/CCC[C@]3(C)[C@@H]([C@H](C)CCCC(C)(C)O)CC[C@@H]23)C[C@@H](O)C[C@@H]1O", "note": "[calcitriol]", "values": [
      {"measurement": "baseline and calcitriol-induced CYP24 enzyme profile", "setting": "CYP24; A549 lung cancer cells", "result": "high baseline and calcitriol induced CYP24 activity"},
      {"measurement": "CYP24A1 enzyme activity profiles", "setting": "CYP24; DU145 prostate cancer cells", "result": "high baseline and calcitriol induced CYP24 activity"},
      {"measurement": "CYP24A1 enzyme activity profiles", "setting": "CYP24; DU145 prostate cancer cells, listed as D3", "result": "High baseline & D3 inducible"},
      {"measurement": "baseline and calcitriol-induced CYP24 enzyme profile", "setting": "CYP24; H520 lung cancer cells", "result": "negligible baseline and calcitriol-induced CYP24 activity"},
      {"measurement": "baseline and calcitriol-induced CYP24 enzyme profile", "setting": "CYP24; HCT116 colon cancer cells", "result": "high baseline and calcitriol induced CYP24 activity"},
      {"measurement": "baseline and calcitriol-induced CYP24 enzyme profile", "setting": "CYP24; HT29 colon cancer cells", "result": "barely detectable baseline CYP24 activity that is calcitriol-induced"},
      {"measurement": "CYP24A1 enzyme activity profiles", "setting": "CYP24; LNCaP prostate cancer cells", "result": "negligible baseline and calcitriol-induced CYP24 activity"},
      {"measurement": "CYP24A1 enzyme activity profiles", "setting": "CYP24; LNCaP prostate cancer cells, listed as D3", "result": "Negligible: baseline & D3 inducible"},
      {"measurement": "baseline and calcitriol-induced CYP24 enzyme profile", "setting": "CYP24; MCF7 breast cancer cells", "result": "barely detectable baseline CYP24 activity that is calcitriol-induced"},
      {"measurement": "baseline and calcitriol-induced CYP24 enzyme profile", "setting": "CYP24; MDA231 breast cancer cells", "result": "high baseline and calcitriol induced CYP24 activity"},
      {"measurement": "CYP24A1 enzyme activity profiles", "setting": "CYP24; PC3 prostate cancer cells", "result": "barely detectable baseline CYP24 activity that is calcitriol-induced"},
      {"measurement": "CYP24A1 enzyme activity profiles", "setting": "CYP24; PC3 prostate cancer cells, listed as D3", "result": "Negligible baseline & high D3 inducible"},
      {"measurement": "sensitivity to calcitriol growth inhibition", "setting": "PC3", "result": "relatively resistant to calcitriol growth inhibition"},
      {"measurement": "sensitivity to calcitriol growth inhibition", "setting": "LNCaP", "result": "sensitive to calcitriol growth inhibition"},
      {"measurement": "sensitivity to calcitriol growth inhibition", "setting": "DU145", "result": "relatively resistant to calcitriol growth inhibition"},
      {"measurement": "Exon 11-12 size (bp), D3 treated", "setting": "CYP24 mRNA; DU145 prostate cancer cells", "result": 135, "unit": "bp"},
      {"measurement": "Exon 11-12 size (bp), D3 treated", "setting": "CYP24 mRNA; LNCaP prostate cancer cells", "result": 307, "unit": "bp"},
      {"measurement": "Exon 11-12 size (bp), D3 treated", "setting": "CYP24 mRNA; PC3 prostate cancer cells", "result": 135, "unit": "bp"},
      {"measurement": "serum calcitriol elimination half life (T1/2)", "setting": "[1]", "result": "significantly lower T1/2 than the TC/TC genotype"},
      {"measurement": "potentiation of antitumor activity of docetaxel", "setting": "advanced prostate cancer", "result": "potentiate the antitumor activity of docetaxel"}
    ]}
  ]
}
